Source: patent publication US11052092B2, “N-{[2-(piperidin-1-yl)phenyl](phenyl)methyl}-2-(3-oxo-3,4-dihydro-2H-1,4-benzoxazin-7-yl)acetamide derivatives and related compounds as ROR-gamma modulators for treating autoimmune diseases” (Genfit, priority 2017, dated 2021)

What was measured:
[1] = biological target: T1, RORγt ligand-binding domain (RORγt-LBD) (Homo sapiens, UniProt P51449); test: Time-resolved FRET (TR-FRET) RORγt coactivator assay; conditions: GST-RORγ-LBD, biotinylated RIP140 peptide, 2 hours at room temperature
T1 construct: 20 nM recombinantly expressed RORγ-LBD fused to GST
T1 sequence (P51449 269-508 limits assumed): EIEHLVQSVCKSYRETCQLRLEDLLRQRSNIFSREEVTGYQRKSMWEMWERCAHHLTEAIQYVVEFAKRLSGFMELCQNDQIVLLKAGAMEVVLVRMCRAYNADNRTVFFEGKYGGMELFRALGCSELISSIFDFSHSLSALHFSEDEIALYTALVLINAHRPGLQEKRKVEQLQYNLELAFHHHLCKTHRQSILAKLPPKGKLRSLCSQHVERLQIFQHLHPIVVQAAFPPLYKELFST
Description: Time-resolved FRET (TR-FRET) RORγt coactivator assay was used to identify RORγ modulator compounds with ligand-dependent coactivator displacement. The assay uses a d2-labeled anti-GST antibody, synthetic N-terminally biotinylated peptide which is derived from nuclear receptor coactivator protein RIP140, and a RORγt ligand-binding domain (RORγt-LBD) that is tagged with glutathione-S-transferase (GST). The influence of compounds on the RORγ-peptide interaction relies on the binding dependent energy transfer from a donor to an acceptor fluorophor attached to the binding partner of interest. […] For reduction of background from compound fluorescence, TR-FRET method makes use of generic fluorophore labels and time resolved detection.
The assays were done in a final volume of 20 μl in a 384 well plate in a CHAPS buffer (2 mM CHAPS; 1 mM DTT, 2 mM EDTA; 0.1% BSA), containing 20 nM recombinantly expressed RORγ-LBD fused to GST, 30 nM N-terminally biotinylated peptide, 1 nM streptavidin-terbium conjugate and 20 nM d2 labeled-anti-GST. Test compounds were diluted using 10 mM stock solution. The range of the final compound concentrations used in this test was from 0.3 nM to 30 μM (logarithmic scale). DMSO content of the samples was kept at 1%. The assay was equilibrated for 2 hours in the dark at room temperature in 384 well plates (Falcon). The signal was detected by an Ultra384 reader (TECAN). […] Compounds that promote coactivator displacement induce a concentration-dependent decrease in time-resolved fluorescent signal. Data were collected and analyzed using GraphPad Prism software (GraphPad Software V5.02, San Diego Calif. USA). IC50 in μM and Emax in % were reported for each compound.

[2] = test system: Murine EL-4 lymphoma cell line overexpressing human RORγt; test: IL-17 secretion from EL4 murine lymphoma; assay type: cell-based; conditions: Mus musculus; human RORγt-transfected EL4 cells, PMA (10 ng/mL) and ionomycin (1 μM), 24 h; read-out: IC50, IL-17 secretion inhibition
Outline: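 EL-4 cells electroporated with hRORγt plasmid, seeded at 150000 cells/well and pretreated with compound for 24 h, then stimulated with PMA (10 ng/mL) plus ionomycin (1 μM final) with compound for a further 24 h at 37 °C. IL-17 in supernatant measured by HTRF or ELISA.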

[3] = biological target: T2, human RORγt (Homo sapiens, UniProt P51449); test: RORE Luciferase/RORγt transactivation assay; assay type: cell-based; conditions: COS-7 cells transfected with human IL-17 promoter luciferase reporter and RORγt plasmid; 20 h with compound; read-out: IC50, RORγt activity inhibition
T2 construct: the full-length cDNA of human RORγt; expressed in transfected cells; host or cells: COS-7 (monkey kidney)
T2 sequence (P51449 1-497 isoform P51449-2): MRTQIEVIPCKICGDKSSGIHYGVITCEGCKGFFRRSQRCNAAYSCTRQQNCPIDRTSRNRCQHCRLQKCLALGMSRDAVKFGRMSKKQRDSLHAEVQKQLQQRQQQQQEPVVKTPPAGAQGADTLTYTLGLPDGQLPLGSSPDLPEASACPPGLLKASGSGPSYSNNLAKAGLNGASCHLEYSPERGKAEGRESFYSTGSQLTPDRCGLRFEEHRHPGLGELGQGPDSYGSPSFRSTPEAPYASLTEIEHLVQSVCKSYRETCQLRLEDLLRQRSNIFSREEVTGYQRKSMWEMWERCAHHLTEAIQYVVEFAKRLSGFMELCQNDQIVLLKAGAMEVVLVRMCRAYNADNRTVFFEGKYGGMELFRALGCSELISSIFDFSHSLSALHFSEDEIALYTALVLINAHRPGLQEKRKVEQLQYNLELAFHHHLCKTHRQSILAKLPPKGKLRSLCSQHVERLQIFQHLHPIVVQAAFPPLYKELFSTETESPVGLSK
Outline: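 COS-7 cells were transiently co-transfected with a human IL-17 promoter (RORE/CNS)–luciferase reporter and a RORγt expression plasmid, then seeded at 10000 cells/well in serum-free, phenol red-free DMEM. Compounds were added at 0.3% DMSO final. Luciferase was read with Steady-Glo, and IC50 and Emax were derived.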

| Structure (SMILES) | IC50 [1] [nM] | IC50 [2] [nM] | IC50 [3] [nM] | melting point [°C] |
| --- | --- | --- | --- | --- |
| Cc1ccc(C(NC(=O)Cc2ccc3c(c2)OCC(=O)N3)c2ccccc2)c(N2CCCCC2)c1 (stereo not drawn) [Cpd. 1, N-{[4-methyl-2-(piperidin-1-yl)phenyl](phenyl)methyl}-2-(3-oxo-3,4-dihydro-2H-1,4-benzoxazin-7-yl)acetamide] | 100 to 1000 | 100 to 1000 | 100 to 1000 | – |
| Cc1ccc(C(NC(=O)Cc2ccc3[nH]cc(C)c3c2)c2ccc(C)o2)c(N2CCCCC2)c1 (stereo not drawn) [Cpd. 64, 2-(3-methyl-1H-indol-5-yl)-N-{[4-methyl-2-(piperidin-1-yl)phenyl](5-methylfuran-2-yl)methyl}acetamide] | 100 to 1000 | < 100 | 10 to 100 | – |
| Cc1ccc(C(NC(=O)C2(c3ccc4c(c3)CC(=O)N4)CC2)c2ccc(Cl)o2)c(C)c1 (stereo not drawn) [Cpd. 86, N-[(5-chlorofuran-2-yl)(2,4-dimethylphenyl)methyl]-1-(2-oxo-2,3-dihydro-1H-indol-5-yl)cyclopropane-1-carboxamide] | < 10 | < 100 | < 10 | – |
| Cc1ccc(C(NC(=O)Cc2ccc3c(c2)OC(C)(C)C(=O)N3)c2ccc(C)o2)c(N2CCCCC2)c1 (stereo not drawn) [Cpd. 25, 2-(2,2-dimethyl-3-oxo-3,4-dihydro-2H-1,4-benzoxazin-7-yl)-N-{[4-methyl-2-(piperidin-1-yl)phenyl](5-methylfuran-2-yl)methyl}acetamide] | 100 to 1000 | 1000 to 10000 | 100 to 1000 | – |
| CC(=O)N1Cc2ccc(C3(C(=O)NC(c4ccc(C)o4)c4ccc(C)cc4C)CC3)cc2C1 (stereo not drawn) [Cpd. 127, 1-(2-acetyl-2,3-dihydro-1H-isoindol-5-yl)-N-[(2,4-dimethylphenyl)(5-methylfuran-2-yl)methyl]cyclopropane-1-carboxamide] | < 10 | < 100 | 10 to 100 | – |
| Cc1ccc(C(NC(=O)Cc2ccc3c(c2)CS(=O)(=O)N3)c2ccc(C)o2)c(N2CCCCC2)c1 (stereo not drawn) [Cpd. 27, 2-(2,2-dioxo-1,3-dihydro-2,1-benzothiazol-5-yl)-N-{[4-methyl-2-(piperidin-1-yl)phenyl](5-methylfuran-2-yl)methyl}acetamide] | < 10 | 100 to 1000 | 10 to 100 | – |
| Cc1ccc(C(NC(=O)Cc2ccc3[nH]c(C)nc3c2)c2ccc(C)o2)c(Br)c1 (stereo not drawn) [Cpd. 77, N-[(2-bromo-4-methylphenyl)(5-methylfuran-2-yl)methyl]-2-(2-methyl-1H-1,3-benzodiazol-5-yl)acetamide] | < 10 | 100 to 1000 | 10 to 100 | – |
| Cc1ccc(C(NC(=O)C2(c3ccc4c(c3)CS(=O)(=O)C4)CC2)c2ccc(C)o2)c(C)c1 (stereo not drawn) [Cpd. 74, N-[(2,4-dimethylphenyl)(5-methylfuran-2-yl)methyl]-1-(2,2-dioxo-1,3-dihydro-2-benzothiophen-5-yl)cyclopropane-1-carboxamide] | < 10 | 100 to 1000 | 10 to 100 | – |
| Cc1ccc(C(NC(=O)Cc2ccc3c(ccn3CCC(=O)O)c2)c2ccc(C)o2)c(C)c1 (stereo not drawn) [Cpd. 101, 3-[5-({[(2,4-dimethylphenyl)(5-methylfuran-2-yl)methyl]carbamoyl}methyl)-1H-indol-1-yl]propanoic acid] | 10 to 100 | – | 100 to 1000 | 65 |
| Cc1ccc(C(NC(=O)Cc2ccc3c(c2)/C(=C\C(C)C)C(=O)N3)c2ccc(C)o2)c(N2CCCCC2)c1 (stereo not drawn) [Cpd. 48, N-{[4-methyl-2-(piperidin-1-yl)phenyl](5-methylfuran-2-yl)methyl}-2-[(3E)-3-(2-methylpropylidene)-2-oxo-2,3-dihydro-1H-indol-5-yl]acetamide] | 100 to 1000 | – | 100 to 1000 | 91 |
| Cc1ccc(C(NC(=O)Cc2ccc3c(ccn3CCC(=O)O)c2)c2ccc(C)o2)c(Br)c1 (stereo not drawn) [Cpd. 102, 3-[5-({[(2-bromo-4-methylphenyl)(5-methylfuran-2-yl)methyl]carbamoyl}methyl)-1H-indol-1-yl]propanoic acid] | 10 to 100 | – | 100 to 1000 | 70 |
| O=C1COc2cc(CC(=O)NC(c3ccccc3)c3ccccc3N3CCOCC3)ccc2N1 (stereo not drawn) [Cpd. 7, N-{[2-(morpholin-4-yl)phenyl](phenyl)methyl}-2-(3-oxo-3,4-dihydro-2H-1,4-benzoxazin-7-yl)acetamide] | 100 to 1000 | – | > 10000 | – |
| Cc1ccc(C(NC(=O)Cc2ccc3c(c2)CC(=O)N3)c2ccccc2)c(N2CCOCC2)c1 (stereo not drawn) [Cpd. 18, N-{[4-methyl-2-(morpholin-4-yl)phenyl](phenyl)methyl}-2-(2-oxo-2,3-dihydro-1H-indol-5-yl)acetamide] | 100 to 1000 | – | 1000 to 10000 | – |
| COc1ccc(C(NC(=O)Cc2ccc3c(c2)C(=O)C(=O)N3)c2ccccc2)c(N2CCCCC2)c1 (stereo not drawn) [Cpd. 22, 2-(2,3-dioxo-2,3-dihydro-1H-indol-5-yl)-N-{[4-methoxy-2-(piperidin-1-yl)phenyl](phenyl)methyl}acetamide] | 100 to 1000 | – | 1000 to 10000 | – |
| Cc1ccc(C(NC(=O)Cc2ccc3c(c2)C(=Cc2c(C)noc2C)C(=O)N3)c2ccc(C)o2)c(N2CCCCC2)c1 (stereo not drawn) [Cpd. 43, 2-{3-[(dimethyl-1,2-oxazol-4-yl)methylidene]-2-oxo-2,3-dihydro-1H-indol-5-yl}-N-{[4-methyl-2-(piperidin-1-yl)phenyl](5-methylfuran-2-yl)methyl}acetamide] | 100 to 1000 | – | 100 to 1000 | – |
| O=C(Cc1ccc2c(c1)CS(=O)(=O)N2)NC(c1ccccc1)c1ccccc1N1CCCCC1 (stereo not drawn) [Cpd. 26, 2-(2,2-dioxo-1,3-dihydro-2,1-benzothiazol-5-yl)-N-{phenyl[2-(piperidin-1-yl)phenyl]methyl}acetamide] | 10 to 100 | – | 1000 to 10000 | – |
| CCc1ccc(C(NC(=O)Cc2ccc3c(c2)OCC(=O)N3)c2ccc(C)cc2C)o1 (stereo not drawn) [Cpd. 32, N-[(2,4-dimethylphenyl)(5-ethylfuran-2-yl)methyl]-2-(3-oxo-3,4-dihydro-2H-1,4-benzoxazin-7-yl)acetamide] | 1000 to 10000 | – | 100 to 1000 | – |
| O=C1Cc2cc(CC(=O)NC(c3ccccc3)c3ccccc3N3CCCCC3)ccc2N1 (stereo not drawn) [Cpd. 15, 2-(2-oxo-2,3-dihydro-1H-indol-5-yl)-N-{phenyl[2-(piperidin-1-yl)phenyl]methyl}acetamide] | 10 to 100 | – | 1000 to 10000 | – |
| COc1ccc(C(NC(=O)Cc2ccc3c(c2)OCC(=O)N3)c2ccc(C)o2)c(Br)c1 (stereo not drawn) [Cpd. 34, N-[(2-bromo-4-methoxyphenyl)(5-methylfuran-2-yl)methyl]-2-(3-oxo-3,4-dihydro-2H-1,4-benzoxazin-7-yl)acetamide] | 100 to 1000 | – | 100 to 1000 | – |
| Cc1ccc(C(NC(=O)C2(c3ccc4c(c3)CS(=O)(=O)N4)CC2)c2ccc(C)o2)c(C)c1 (stereo not drawn) [Cpd. 63, N-[(2,4-dimethylphenyl)(5-methylfuran-2-yl)methyl]-1-(2,2-dioxo-1,3-dihydro-2,1-benzothiazol-5-yl)cyclopropane-1-carboxamide] | < 10 | – | 10 to 100 | – |
